Test results published in patent publication US20250179059A1 (The Regents of the University of California, priority 2021, published 2025).
Like-named read-outs stand apart in the source and are kept apart here.

Assays:
[1] = test system: human SKM-1 acute myeloid leukemia cells; assay: SKM-1 antiproliferation cell-based assay (ATPlite); details: Homo sapiens
Method in brief: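 Log-phase cells in RPMI 1640/15% FBS were seeded at 34722 cells/mL and exposed for 4 days to nine-concentration DMSO serial dilutions in triplicate. Viability was read as ATP luminescence (ATPlite 1step), and IC50 values came from variable-slope non-linear regression.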

[2] = molecular target: T1, human BRD4 bromodomain II (Homo sapiens, UniProt O60885); assay: Bromodomain binding assay (AlphaScreen), BRD4 BDII
T1 construct: human BRD4 bromodomain II [based on Genbank NM_058243, residues 349-460]; host or cells: E. coli
Method in brief: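 Inhibition of acetyl-H4 peptide binding to human BRD4 bromodomains is measured by bead-based proximity (AlphaScreen) in pH 7.5 HEPES buffer containing 0.05% CHAPS and 0.1% BSA. Ten compound concentrations in 3-fold steps give competitive binding IC50s.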

[3] = SKM-1, 96 h, SKM-1 antiproliferation assay, 4 days, Table C2
[4] = AlphaScreen assay, Table C2, read-out: BRD4 BDII IC50
[5] = SKM-1, SKM-1 antiproliferation assay
[6] = BRD4 BDII AlphaScreen assay, read-out: BRD4 BD2 IC50

SMILES | GI50 [1, 3] [nM] | IC50 [2, 4] [nM] | GI50 [1, 5] [nM] | IC50 [2, 6] [nM]
O=C1CCCCN1c1ccc(-c2cccc(-c3ccnc(N4CCNCC4)c3)c2O)cc1F [Example 263, 1-(3-fluoro-2′-hydroxy-3′-(2-(piperazin-1-yl)pyridin-4-yl)-[1,1′-biphenyl]-4-yl)piperidin-2-one] | 300 to 3000 | 10 to 100 |  | 
Cc1cc(-c2ccc(-n3ccn(C)c3=O)c(Cl)c2)c(O)c(-c2ccnc(N3CCC4(CCC(=O)N4)C3)c2)n1 (stereo not drawn) [Example 1032, 7-(4-(3-chloro-4-(3-methyl-2-oxo-2,3-dihydro-1H-imidazol-1-yl)phenyl)-3-hydroxy-6-methyl-[2,4′-bipyridin]-2′'-yl)-1,7-diazaspiro[4.4]nonan-2-one] |  |  | 0.3 to 30 | 0.01 to 1
CC(C)Oc1cc(-c2cc(F)cc(-c3ccnc(N4CCNCC4)c3)c2O)cc(Cl)c1N1CCN(C)C1=O [Example 418, 1-(3-chloro-5′-fluoro-2′-hydroxy-5-isopropoxy-3′-(2-(piperazin-1-yl)pyridin-4-yl)-[1,1′-biphenyl]-4-yl)-3-methylimidazolidin-2-one] | 300 to 3000 | 10 to 100 |  | 
COc1ncc(-c2cc(F)cc(-c3ccc(-n4ccn(C)c4=O)c(Cl)c3)c2O)cc1N1CC(F)(F)[C@](C)(O)C1 [Example 900] |  |  | 30 to 300 | 0.01 to 1
COc1ncc(-c2nc(C)cc(-c3ccc(-n4ccn(C)c4=O)c(F)c3)c2O)cc1N1CCN(C(C)(C)C)CC1 [Example 997, 1-(4-(5′-(4-(tert-butyl)piperazin-1-yl)-3-hydroxy-6′-methoxy-6-methyl-[2,3′-bipyridin]-4-yl)-2-fluorophenyl)-3-methyl-1H-imidazol-2(3H)-one] |  |  | 0.3 to 30 | 1 to 10
CN1CCN(c2cc(-c3cc(F)cc(-c4ccc(-n5ccn(C)c5=O)c(Cl)c4)c3O)cc3c2cnn3C)CC1 [Example 604, 1-(3-chloro-5′-fluoro-2′-hydroxy-3′-(1-methyl-4-(4-methylpiperazin-1-yl)-1H-indazol-6-yl)-[1,1′-biphenyl]-4-yl)-3-methyl-1H-imidazol-2(3H)-one] | 0.3 to 30 | 0.01 to 1 |  | 
Cn1ccn(-c2ccc(-c3cc(F)cc(-c4ccnc(N5CCNC(C)(C)C5)c4)c3O)cc2Cl)c1=O [Example 563, 1-(3-chloro-3′-(2-(3,3-dimethylpiperazin-1-yl)pyridin-4-yl)-5′-fluoro-2′-hydroxy-[1,1′-biphenyl]-4-yl)-3-methyl-1H-imidazol-2(3H)-one] | 0.3 to 30 | 0.01 to 1 |  | 
CC(=O)Nc1ccc(-c2cccc(-c3ccnc(N4CCC(CO)C4)c3)c2O)cc1F (stereo not drawn) [Example 230, N-(3-fluoro-2′-hydroxy-3′-(2-(3-(hydroxymethyl)pyrrolidin-1-yl)pyridin-4-yl)-[1,1′-biphenyl]-4-yl)acetamide] | 300 to 3000 | 1 to 10 |  | 
CNC(=O)c1cc(-c2cccc(-c3ccc(NC(C)=O)c(F)c3)c2O)cc(N2CCNCC2)n1 [Example 349, 4-(4′-acetamido-3′-fluoro-2-hydroxy-[1,1′-biphenyl]-3-yl)-N-methyl-6-(piperazin-1-yl)picolinamide] | 300 to 3000 | 10 to 100 |  | 
Cn1ccn(-c2ccc(-c3cc(F)cc(-c4ccnc(N5CCN[C@H](CC(=O)O)C5)c4)c3O)cc2Cl)c1=O [Example 653] | 300 to 3000 | 0.01 to 1 |  | 
CNC(=O)Nc1ccc(-c2cc(F)cc(-c3cccc(N4CCN(C(C)(C)C)CC4)c3)c2O)cc1Cl [Example 921, 1-(3″-(4-(tert-Butyl)piperazin-1-yl)-3-chloro-5′-fluoro-2′-hydroxy-[1,1′:3′,1″-terphenyl]-4-yl)-3-methylurea] |  |  | 300 to 3000 | 10 to 100
CN1CCN(c2c(Cl)cc(-c3cc(F)cc(-c4ccnc(N5CCNCC5)c4)c3O)cc2Cl)C1=O [Example 404, 1-(3,5-dichloro-5′-fluoro-2′-hydroxy-3′-(2-(piperazin-1-yl)pyridin-4-yl)-[1,1′-biphenyl]-4-yl)-3-methylimidazolidin-2-one] | 300 to 3000 | > 100 |  | 
Cn1ccn(-c2ccc(-c3cc(F)cc(-c4cnc(C5CC5)c(N5CC(C)(O)C6(CC6)C5)c4)c3O)cc2Cl)c1=O (stereo not drawn) [Example 849, 1-(3-Chloro-3′-(6-cyclopropyl-5-(7-hydroxy-7-methyl-5-azaspiro[2.4]heptan-5-yl)pyridin-3-yl)-5′-fluoro-2′-hydroxy-[1,1′-biphenyl]-4-yl)-3-methyl-1H-imidazol-2(3H)-one] |  |  | 30 to 300 | 0.01 to 1
CO[C@@H]1COC(=O)N1c1ccc(-c2cc(F)cc(-c3ccnc(N4CCNCC4)c3)c2O)cc1Cl [Example 507, (R)-3-(3-chloro-5′-fluoro-2′-hydroxy-3′-(2-(piperazin-1-yl)pyridin-4-yl)-[1,1′-biphenyl]-4-yl)-4-methoxyoxazolidin-2-one] | 300 to 3000 | 10 to 100 |  | 
CC(=O)Nc1ccc(-c2cccc(-c3ccnc(N4CCN[C@H](C)C4)c3)c2O)cc1F [Example 255, (R)-N-(3-fluoro-2′-hydroxy-3'-(2-(3-methylpiperazin-1-yl)pyridin-4-yl)-[1,1′-biphenyl]-4-yl)acetamide] | 30 to 300 | 1 to 10 |  | 
CC(=O)Nc1ccc(-c2cccc(-c3ccnc(C#CCCN)c3)c2O)cc1F [Example 304, N-(3′-(2-(4-aminobut-1-yn-1-yl)pyridin-4-yl)-3-fluoro-2′-hydroxy-[1,1′-biphenyl]-4-yl)acetamide] | 300 to 3000 | 10 to 100 |  | 
Cn1ccn(-c2ccc(-c3cc(F)cc(-c4ccnc(N5CCN[C@H](CC#N)C5)c4)c3O)cc2Cl)c1=O [Example 698, (R)-2-(4-(4-(3′-chloro-5-fluoro-2-hydroxy-4′-(3-methyl-2-oxo-2,3-dihydro-1H-imidazol-1-yl)-[1,1′-biphenyl]-3-yl)pyridin-2-yl)piperazin-2-yl)acetonitrile] | 0.3 to 30 | 0.01 to 1 |  | 
Cc1cc(-c2ccnc(N3CCNCC3)c2)c(O)c(-c2ccc(-n3ccn(C)c3=O)c(Cl)c2)c1 [Example 420, 1-(3-chloro-2′-hydroxy-5′-methyl-3′-(2-(piperazin-1-yl)pyridin-4-yl)-[1,1′-biphenyl]-4-yl)-3-methyl-1H-imidazol-2(3H)-one] | 0.3 to 30 | 0.01 to 1 |  | 
Cn1ccn(-c2ccc(-c3cc(F)cc(-c4ccnc(N5C[C@H](O)[C@@H](F)C5)c4)c3O)cc2Cl)c1=O [Example 786, 1-(3-chloro-5′-fluoro-3′-(2-((3S,4S)-3-fluoro-4-hydroxypyrrolidin-1-yl)pyridin-4-yl)-2′-hydroxy-[1,1′-biphenyl]-4-yl)-3-methyl-1H-imidazol-2(3H)-one] | 30 to 300 | 1 to 10 |  | 
Cc1cc(-c2ccc(-n3ccn(C)c3=O)c(Cl)c2)c(O)c(-c2cnc(N)c(N3CCC4(CCN4C(C)C)C3)c2)n1 (stereo not drawn) [Example 975, 1-(4-(6′-amino-3-hydroxy-5′-(1-isopropyl-1,6-diazaspiro[3.4]octan-6-yl)-6-methyl-[2,3′-bipyridin]-4-yl)-2-chlorophenyl)-3-methyl-1H-imidazol-2(3H)-one] |  |  | 0.3 to 30 | 1 to 10
CN1CCC12CCN(c1cc(-c3cc(F)cc(-c4ccc(-n5ccn(C)c5=O)c(Cl)c4)c3O)ccn1)C2 (stereo not drawn) [Example 642, 1-(3-chloro-5′-fluoro-2′-hydroxy-3′-(2-(1-methyl-1,6-diazaspiro[3.4]octan-6-yl)pyridin-4-yl)-[1,1′-biphenyl]-4-yl)-3-methyl-1H-imidazol-2(3H)-one] | 0.3 to 30 | 0.01 to 1 |  | 
Cc1cc(-c2cc(F)cc(-c3cccc(N4CCN(C(C)(C)C)CC4)c3)c2O)cc(Cl)c1-n1ccn(C)c1=O [Example 927, 1-(3″-(4-(tert-butyl)piperazin-1-yl)-3-chloro-5′-fluoro-2′-hydroxy-5-methyl-[1,1′:3′,1″-terphenyl]-4-yl)-3-methyl-1H-imidazol-2(3H)-one] |  |  | 30 to 300 | 10 to 100
COc1ncc(-c2nc(C)cc(-c3ccc(-n4ccn(C)c4=O)c(Cl)c3)c2O)cc1N1CCC2(CCCN2C(C)C)C1 (stereo not drawn) [Example 972, 1-(2-chloro-4-(3-hydroxy-5′-(1-isopropyl-1,7-diazaspiro[4.4]nonan-7-yl)-6′-methoxy-6-methyl-[2,3′-bipyridin]-4-yl)phenyl)-3-methyl-1H-imidazol-2(3H)-one] |  |  | 0.3 to 30 | 0.01 to 1
CC(=O)Nc1ccc(-c2cccc(-c3cc(C#N)cc(N4CCNCC4)c3)c2O)cc1F [Example 234, N-(3″-cyano-3-fluoro-2′-hydroxy-5″-(piperazin-1-yl)-[1,1′:3′,1″-terphenyl]-4-yl)acetamide] | 30 to 300 | 1 to 10 |  | 
Cn1ccn(-c2ccc(-c3cc(F)cc(-c4cc(N5CCNCC5)c5cn[nH]c5c4)c3O)cc2Cl)c1=O [Example 526, 1-(3-chloro-5′-fluoro-2′-hydroxy-3′-(4-(piperazin-1-yl)-1H-indazol-6-yl)-[1,1′-biphenyl]-4-yl)-3-methyl-1H-imidazol-2(3H)-one] | 0.3 to 30 | 1 to 10 |  | 
Cn1ccn(-c2ccc(-c3cc(F)cc(-c4cccc(N5CCN(C(C)(C)C)CC5)n4)c3O)cc2Cl)c1=O [Example 950, 1-(3′-(6-(4-(tert-butyl)piperazin-1-yl)pyridin-2-yl)-3-chloro-5′-fluoro-2′-hydroxy-[1,1′-biphenyl]-4-yl)-3-methyl-1H-imidazol-2(3H)-one] |  |  | 300 to 3000 | > 100
Cn1ccn(-c2ccc(-c3cc(F)cc(-c4ccnc(N5CCNc6ccccc65)c4)c3O)cc2Cl)c1=O [Example 532, 1-(3-chloro-3′-(2-(3,4-dihydroquinoxalin-1(2H)-yl)pyridin-4-yl)-5′-fluoro-2′-hydroxy-[1,1′-biphenyl]-4-yl)-3-methyl-1H-imidazol-2(3H)-one] | ≥ 3000 | > 100 |  | 
